Results: article PMC9171197, “The Impact of Chromate on Pseudomonas aeruginosa Molybdenum Homeostasis” (Frontiers in Microbiology, 2022)
Read-outs that look alike come from different tables or passages of the source.

Molecular target: T1, P. aeruginosa PAO1 ModA (Pseudomonas aeruginosa, UniProt Q9I2N2)
T1 construct: N-terminal His6 tag (pMCSG7) cleaved by TEV protease; E. coli BL21-Gold (DE3); metal-free
Assay: isothermal titration calorimetry
Assay type: binding
Excerpt: isothermal titration calorimetry on P. aeruginosa PAO1 ModA

T1 sequence (Q9I2N2 23-251): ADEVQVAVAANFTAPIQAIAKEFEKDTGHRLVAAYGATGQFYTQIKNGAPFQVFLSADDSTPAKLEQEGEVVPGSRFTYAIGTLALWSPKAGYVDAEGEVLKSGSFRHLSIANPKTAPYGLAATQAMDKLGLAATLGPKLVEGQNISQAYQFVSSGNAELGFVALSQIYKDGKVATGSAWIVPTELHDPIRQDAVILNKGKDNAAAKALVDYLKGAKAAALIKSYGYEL

[O]=[Mo](=[O])([OH])[OH] [MoO, molybdate] was tested, and the Kd (read-out: MoO-ModA) was 1 ± 1.3 nM.

Work on [O]=[W](=[O])([OH])[OH] [WO, tungstate] yielded a Kd (read-out: WO-ModA) of 1.2 ± 2 nM.

In the case of [O]=[Cr](=[O])([OH])[OH] [CrO, chromate], the Kd (read-out: CrO-ModA) is reported as 927 ± 87.7 nM.
